Measured values as given in patent US20040138315A1 (priority 2000, published 2004).

How the values were obtained:
[1] = system: PMA-induced aggregation of platelet rich plasma (phorbol ester receptor); experiment: Phorbol ester, platelet aggregation (461500); assay type: cell-based, rabbit; conditions: for ANT. (antagonist response), phorbol ester platelet aggregation / AG. (agonist response), phorbol ester platelet aggregation: 30 μM, platelet rich plasma, rabbit; for AG. (agonist response), phorbol ester platelet aggregation: relative to PMA 0.5 μM
Procedure: (§1) Test compounds referred to above were evaluated for inhibition of platelet aggregation induced by adenosine diphosphate, arachidonic acid, phorbol ester and Platelet Activating Factor (PAF) at […]. The following methods were employed in this analysis, and reference compounds for the respective assays are indicated in Appendix 1:
Venous blood obtained from male or female New Zealand derived albino rabbits weighing 2.5-3 kg is mixed with one-tenth volume of trisodium citrate (0.13 M) and centrifuged at room temperature for 10 min at 220 g. Test substance (30 μM)-induced aggregation of the supernatant platelet rich plasma by 50 percent or more (≧50%) within 5 min, relative to control phorbol myristate acetate (PMA, 0.5 μM) response at 37° C. as measured by an optical aggregometer, indicates possible phorbol ester receptor agonist activity.
At a test substance concentration where no significant agonist activity is seen, ability to reduce the PMA (0.5 μM)-induced maximum non-reversible aggregation response by 50 percent or more (>50%) indicates phorbol ester receptor antagonist activity.

[2] = system: adenosine diphosphate-induced aggregation of platelet rich plasma (ADP receptor); experiment: Adenosine diphosphate, platelet aggregation (404010); assay type: cell-based, rabbit; conditions: for ANT. (antagonist response), ADP platelet aggregation / AG. (agonist response), ADP platelet aggregation: 30 μM, platelet rich plasma, rabbit; for AG. (agonist response), ADP platelet aggregation: relative to […] ADP
Procedure: as §1
Venous blood obtained from male or female New Zealand derived albino rabbits weighing 2.5-3 kg was mixed with one-tenth volume of trisodium citrate (0.13 M) and centrifuged at room temperature for 10 min at 220 g. Test substance (30 EM)-induced aggregation of the supernatant platelet rich plasma by 50 percent or more (>50%) more relative to 1.2 μM adenosine diphosphate control response at 37° C. as mearsured by an optical aggregometer, indicates possible ADP receptor agonist activity.
At a test substance concentration where no significant agonist activity is seen, ability to reduce the adenosine diphosphate-induced maximum non-reversible aggregation response by 50 percent or more (≧50%) was indicative of ADP receptor antagonist activity.

[3] = system: PAF-acether-induced aggregation of platelet rich plasma (PAF receptor); experiment: PAF, platelet aggregation (463010); assay type: cell-based, rabbit; conditions: for ANT. (antagonist response), PAF platelet aggregation / AG. (agonist response), PAF platelet aggregation: 30 μM, platelet rich plasma, rabbit; for AG. (agonist response), PAF platelet aggregation: relative to 5 nM PAF-acether
Procedure: as §1
Venous blood obtained from male or female New Zealand derived albino rabbits weighing 2.5-3 kg is mixed with one-tenth volume of trisodium citrate (0.13 M) and centrifuged at room temperture for 10 min at 220 g. Test Substance (30 μM)-induced aggregation of the supernatant platelet rich plasma by 50 percent or more (≧50%) within 5 min, relative to control 5 nM platelet activating factor-acether (PAF-acether) response at 37[…] as measured by an optical aggregometer, indicates possible PAF receptor agonist activity.
At a test substance concentration where no significant agonist activity is seen, ability to reduce the PAF-acether-induced maximum non-reversible aggregation response by 50 percent or more (≧50%) indicates PAF receptor antagonist activity.

[4] = system: arachidonic acid-induced aggregation of platelet rich plasma; experiment: Arachidonic acid, platelet aggregation (412510); assay type: cell-based, rabbit; conditions: for ANT. (antagonist response), arachidonic acid platelet aggregation / AG. (agonist response), arachidonic acid platelet aggregation: 30 μM, platelet rich plasma, rabbit; for AG. (agonist response), arachidonic acid platelet aggregation: relative to 100 μM arachidonic acid
Procedure: as §1
Venous blood obtained from male or female New Zealand derived albino rabbits weighting 2.5-3 kg was mixed with one-tenth volume of trisodeium citrate (0.13M) and centrifuged at room temperature for 10 min at 220 g. Test substance (30 μM)-induced aggregation of the supernatant platelet rich plasma by 50 percent or more (≧50%) within 5 min, relative to 100 μM arachidonic acid response at 37° C. as measured by an optical aggregometer indicates possible agonist activity.
At a test substance concentration where no significant agonist activity is seen, ability to reduce the arachidonic acid-induced maximum non-reversible aggregation response by 50 percent or more (>50%) was indicative of antagonist activity.

Cannabinoid CB1 = molecular target: T1, Cannabinoid CB1 (Mus musculus, UniProt P47746); experiment: Cannabinoid CB1 tissue assay, vas deferens (416000); assay type: cell-based
T1 construct: tissue 416000; host or cells: vas deferens
T1 sequence (P47746 whole entry): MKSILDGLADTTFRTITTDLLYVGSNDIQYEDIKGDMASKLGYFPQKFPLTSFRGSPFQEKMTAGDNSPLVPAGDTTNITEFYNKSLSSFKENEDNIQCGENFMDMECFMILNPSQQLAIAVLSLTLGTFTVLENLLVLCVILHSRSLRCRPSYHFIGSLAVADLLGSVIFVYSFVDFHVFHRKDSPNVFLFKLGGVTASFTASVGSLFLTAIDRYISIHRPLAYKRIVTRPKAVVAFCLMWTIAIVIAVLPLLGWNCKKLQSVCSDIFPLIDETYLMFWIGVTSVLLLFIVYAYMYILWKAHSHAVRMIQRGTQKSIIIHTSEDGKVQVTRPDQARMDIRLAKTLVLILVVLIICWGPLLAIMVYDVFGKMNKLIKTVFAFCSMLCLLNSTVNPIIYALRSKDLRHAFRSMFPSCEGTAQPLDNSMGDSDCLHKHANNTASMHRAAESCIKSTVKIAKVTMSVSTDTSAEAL

cyclooxygenase COX-1 = molecular target: T2, cyclooxygenase COX-1 (Homo sapiens, UniProt P23219); experiment: Cyclooxygenase COX-1 inhibition in human platelets, PGE2 EIA (116010); assay type: cell-based; conditions: screened at 10 μM
T2 construct: host or cells: human platelets
T2 sequence (P23219 24-599): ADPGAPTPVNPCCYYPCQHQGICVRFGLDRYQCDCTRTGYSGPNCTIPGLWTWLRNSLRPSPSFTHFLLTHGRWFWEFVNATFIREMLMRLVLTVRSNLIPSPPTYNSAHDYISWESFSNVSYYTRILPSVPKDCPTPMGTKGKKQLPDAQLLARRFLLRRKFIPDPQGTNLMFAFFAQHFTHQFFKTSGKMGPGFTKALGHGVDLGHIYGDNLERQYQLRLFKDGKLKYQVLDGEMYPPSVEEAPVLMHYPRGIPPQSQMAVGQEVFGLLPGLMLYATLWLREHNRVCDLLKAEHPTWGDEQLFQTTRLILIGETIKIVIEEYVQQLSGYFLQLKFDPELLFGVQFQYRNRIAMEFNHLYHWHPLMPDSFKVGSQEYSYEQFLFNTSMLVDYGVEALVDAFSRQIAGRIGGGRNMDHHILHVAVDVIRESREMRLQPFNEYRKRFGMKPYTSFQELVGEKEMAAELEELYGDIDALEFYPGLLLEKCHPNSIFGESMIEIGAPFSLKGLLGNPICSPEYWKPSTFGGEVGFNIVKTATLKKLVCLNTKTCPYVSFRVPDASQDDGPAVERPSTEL
Procedure: In these assays, in addition to the designations set forth above, IG-05 refers to resorcinol and IG-06 refers to orcinol.
To assess COX-1 inhibition, test compound and/or vehicle was incubated with human platelets (5×10^7/well) for 15 minutes at5 37° C. Calcium ionophore A23187 (10 μM) was added to induce the arachidonic acid cascade. After another 15 minutes incubation at 37° C., PGE2 levels in the supernatant were quantiated using the Amersham EIA kit. Compounds were screened at 10 μM.

thromboxane A2 synthase = molecular target: T3, thromboxane A2 synthase (Oryctolagus cuniculus, UniProt G1TAZ9); experiment: Thromboxane A2 synthase inhibition, TXB2 radioimmunoassay (194000); assay type: biochemical, rabbit; conditions: screened at 100 μM
T3 sequence (G1TAZ9 1-530): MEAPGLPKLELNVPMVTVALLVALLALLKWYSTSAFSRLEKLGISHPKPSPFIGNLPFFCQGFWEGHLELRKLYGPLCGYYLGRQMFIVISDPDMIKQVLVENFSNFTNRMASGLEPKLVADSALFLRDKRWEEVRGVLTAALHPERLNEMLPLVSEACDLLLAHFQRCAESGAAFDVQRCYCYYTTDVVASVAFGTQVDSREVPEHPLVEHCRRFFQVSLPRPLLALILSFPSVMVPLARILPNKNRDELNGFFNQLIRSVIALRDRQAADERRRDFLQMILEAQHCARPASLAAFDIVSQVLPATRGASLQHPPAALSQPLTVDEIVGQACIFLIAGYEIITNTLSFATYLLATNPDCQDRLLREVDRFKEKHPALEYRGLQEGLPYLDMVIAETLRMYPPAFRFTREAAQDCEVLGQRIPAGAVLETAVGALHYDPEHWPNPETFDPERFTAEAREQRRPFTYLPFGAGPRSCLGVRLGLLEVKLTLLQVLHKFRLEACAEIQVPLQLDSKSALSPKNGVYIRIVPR
Procedure: Test compounds (IG-1 through IG-11) were evaluated for their ability to inhibit cyclooxygenase COX-1, cyclooxygenase COX-2, and thromboxane synthase. In these assays, in addition to the designations set forth above, IG-05 refers to resorcinol and IG-06 refers to orcinol.
To assess Thromboxane A2 synthase, thromboxane A2 synthase isolated from a microsomal fraction of rabbit platelets by conventional centrifugation was used. The test compound and/or vehicle was incubated with 1:200 dilution of thromboxane A2 synthase and 5 ng prostaglandin G2 as substrate in Tris buffer pH 7.5 for 30 minutes at 37° C. The thromboxane A2 formed is immediately converted to thromboxane B2, which was quantitated by a radioimmunoassay. Compounds are screened at 100 μM.

Molecule CC(C)CCCC(C)(C)c1cc(O)cc(O)c1 has a melting point of 95 to 96 °C.
For CCCCCCCCCCCCCC(=O)O[C@@H]1[C@@H](C)[C@@]2(O)[C@@H](C=C(CO)C[C@]3(O)C(=O)C(C)=C[C@@H]23)[C@@H]2C(C)(C)[C@]12OC(C)=O [PMA, phorbol myristate acetate, reference compound], the “Concurrent RESP., reference compound, phorbol ester platelet aggregation - Agonist” value ([1]; 0.5 μM, batch 27699) was 100.
In the case of Nc1nc(Cl)nc2c1ncn2[C@@H]1O[C@H](CO)[C@@H](O)[C@H]1O [2-Chloroadenosine, reference compound], the “Concurrent RESP., reference compound, ADP platelet aggregation - Antagonist” value ([2]; 10 μM, batch 27737) is reported as 90.
For CC1=CCC2C(C1)c1c(O)cc(C(C)(C)CCCC(C)C)cc1OC2(C)C (stereo not drawn) [IG-9, 3-Norpentyl-3-(1,1,5-trimethylhexyl)-Δ 8-tetrahydrocannabinol], the “ANT. (antagonist response), PAF platelet aggregation” value [3] was 4%, the “AG. (agonist response), PAF platelet aggregation” value [3] was 0% and the “ANT. (antagonist response), phorbol ester platelet aggregation” value [1] was 4%. The “AG. (agonist response), phorbol ester platelet aggregation” value [1] was 0%, the “ANT. (antagonist response), ADP platelet aggregation” value [2] was 7% and the “AG. (agonist response), ADP platelet aggregation” value [2] was 0%. The “ANT. (antagonist response), arachidonic acid platelet aggregation” value [4] was 0% and the “AG. (agonist response), arachidonic acid platelet aggregation” value [4] was 0%.
For COc1cc(C(C)(C)CCCC(C)C)cc(OC)c1OC [IG-7, 1-(1,1,5-Trimethylhexyl)-3,4,5-trimethoxybenzene], the “ANT. (antagonist response), PAF platelet aggregation” value [3] was 4%, the “AG. (agonist response), PAF platelet aggregation” value [3] was 0% and the “ANT. (antagonist response), phorbol ester platelet aggregation” value [1] was 9%. For the same molecule, the “AG. (agonist response), phorbol ester platelet aggregation” value [1] was 0%, the “ANT. (antagonist response), ADP platelet aggregation” value [2] was 11% and the “AG. (agonist response), ADP platelet aggregation” value [2] was 0%. The “AG. (agonist response), Cannabinoid CB1” value (Cannabinoid CB1; 30 μM) was −106%, the “ANT. (antagonist response), Cannabinoid CB1” value (Cannabinoid CB1; 30 μM) was 100% and the “ANT. (antagonist response), arachidonic acid platelet aggregation” value [4] was 0%. The “AG. (agonist response), arachidonic acid platelet aggregation” value [4] was 0%.
With CCCCC/C=C\C/C=C\C/C=C\C/C=C\CCCC(=O)NCCO [Anandamide, reference compound] the “Concurrent RESP., reference compound, Cannabinoid CB1 - Agonist” value (Cannabinoid CB1; 0.1 μM, batch 27098) was 100.
In the case of COc1ccc2c(c1)c(CC(=O)O)c(C)n2C(=O)c1ccc(Cl)cc1 [Indomethacin, reference compound], the “Concurrent RESP., reference compound, arachidonic acid platelet aggregation - Antagonist” value ([4]; 0.3 μM, batch 27731) is reported as 100.
For CN[C@@H]1C[C@H]2O[C@@](C)([C@@H]1OC)n1c3ccccc3c3c4c(c5c6ccccc6n2c5c31)C(=O)NC4 [Staurosporine, reference compound], the “Concurrent RESP., reference compound, phorbol ester platelet aggregation - Antagonist” value ([1]; 3 μM, batch 27699) was 100.
With Cc1cc(O)cc(O)c1 [IG-6, orcinol] the “COX-1 inhibition (in words)” value (cyclooxygenase COX-1) was “potent inhibitors of COX-1”.
For COc1cc(C(C)(C)CCCC(C)C)cc(OC)c1O [IG-2, 4-(1,1,5-trimethylhexyl)-2,6-dimethoxyphenol], the “COX-1 inhibition (in words)” value (cyclooxygenase COX-1) was “potent inhibitors of COX-1”.
For CCCCCCCCCCCCCCCCOC[C@H](COP(=O)([O-])OCC[N+](C)(C)C)OC(C)=O [PAF, platelet activating factor-acether, reference compound], the “Concurrent RESP., reference compound, PAF platelet aggregation - Agonist” value ([3]; 5 nM, batch 27927) was 100.
With Cc1ccc2c(c1)-c1c(O)cc(C(C)(C)CCCC(C)C)cc1OC2(C)C [IG-11, 3-Norpentyl-3-(1,1,5-trimethylhexyl)cannabinol] the “Thromboxane synthase inhibition (in words)” value (thromboxane A2 synthase) was “significantly inhibit thromboxane synthase”, the “ANT. (antagonist response), PAF platelet aggregation” value [3] was 11% and the “AG. (agonist response), PAF platelet aggregation” value [3] was 0%. For the same molecule, the “ANT. (antagonist response), phorbol ester platelet aggregation” value [1] was 8%, the “AG. (agonist response), phorbol ester platelet aggregation” value [1] was 0% and the “ANT. (antagonist response), ADP platelet aggregation” value [2] was 0%. The “AG. (agonist response), ADP platelet aggregation” value [2] was 0%, the “AG. (agonist response), Cannabinoid CB1” value (Cannabinoid CB1; 30 μM) was 102% and the “ANT. (antagonist response), arachidonic acid platelet aggregation” value [4] was 0%. The “AG. (agonist response), arachidonic acid platelet aggregation” value [4] was 0%.
In the case of CCCCC/C=C\C/C=C\C/C=C\C/C=C\CCCC(=O)O [Arachidonic Acid, reference compound], the “Concurrent RESP., reference compound, arachidonic acid platelet aggregation - Agonist” value ([4]; 100 μM, batch 27731) is reported as 100.
For Cc1nnc2n1-c1sc(CCC(=O)N3CCOCC3)cc1C(c1ccccc1Cl)=NC2 [WEB-2086, reference compound], the “Concurrent RESP., reference compound, PAF platelet aggregation - Antagonist” value ([3]; 0.3 μM, batch 27927) was 97.
